Patent US20240016161A1, “HERBICIDAL MENTHA PLANT EXTRACT COMPOSITIONS AND METHODS OF USING SAME” (Harpe Bioherbicide Solutions Inc., priority 2020, published 2024)

How the values were obtained:
Timothy [1] = experiment: PRE synergy of weed control in pots/soil; details: two weeks after planting, Pendimethalin / Mentha piperata, rate in label
Protocol: (§4) Potted soil. Commercial potting mix is used as a base with approximately 2 inches of 5% organic matter soil used on the top. Seeds are sown in the soil between 1 cm and 2.5 cm (as indicated by best practices for each plant-seed), filtered water added with various broadleaf and grass species to initiate germination. Conducted in the dark at 75/60 F day night temperature with relative humidity at 50%. Seeds are allowed to imbibe water for 24 hours. […] Seeds, wells have water added every two days. Seeds are monitored for 14 days following treatment. Visual rating for germination, radicle, shoot, and root elongation are recorded. Commercial herbicides are also used at the US label recommended rate for treatment as a positive control.

Rye [2] = experiment: PRE synergy of weed control in pots/soil; details: two weeks after planting, Pendimethalin / Mentha piperata, rate in label
Protocol: as §4

Rye [3] = experiment: PRE germination synergy in Petri dishes; assay type: in vivo, ryegrass; details: preemergence, Topramezone / Mentha spicata, rate in label
Protocol: (§1) Petri Dish. Seed impacts. Dishes layered with filter paper and filtered water added with various broadleaf and unwanted grass species to initiate germination. Conducted in the dark at 75/60° F. day night temperature with relative humidity at 50%. […] The percent volume/volume of extract to water carrier is summarized above. The amount in mg/ml was calculated based on the percent of extract mixed with water. […] Seeds have water added every two days. […] Plates are exposed to 12/12 hour day/night cycle after 7 days.

Timothy [4] = experiment: PRE germination synergy in Petri dishes; assay type: in vivo; details: preemergence, Topramezone / Mentha spicata, rate in label
Protocol: as §1

Timothy [5] = experiment: Disrupting metabolism of herbicide resistant plants in pots, green loss; assay type: in vivo; details: POST, Topramezone / Mentha piperata, rate in label
Description: (§2) Testing involves the same methods as listed above but with weeds/plants which are resistant to herbicides. An example plant is corn, which uses a cytochrome P450 enzyme(s) to detoxify certain commercially available herbicides (Ex. mesotrione). Corn also uses a glutathione S-transferase detoxification system for other commercially available herbicides (ex. Atrazine). Still other examples of herbicide detoxification include “Phase I” reactions—dechlorination, hydroxylation, decarboxylation, dealkylation, oxidation/reduction, and hydrolysis are the initial chemical reactions that occur. These reactions detoxify the herbicide and predispose the resultant metabolites to conjugation. “Phase II” reactions are another example, by conjugation with sugars, amino acids or natural plant constituents (metabolites are strongly bound). Also, “Phase II” I reactions are unique to plants and consist of secondary conjugation reactions or the formation of insoluble bound residues. Most crops grown in the world utilize detoxification, mixed function oxidase, enzymes to protect themselves from herbicides and other xenobiotics. Weeds also utilize this system of enzymes, as well as other biochemical actions, to prevent herbicides from damaging or killing the weeds. […]

seedlings = experiment: PRE germination synergy in Petri dishes, bleaching; assay type: in vivo, ryegrass and Timothy; details: preemergence, Topramezone / Mentha spicata, rate in label
Protocol: as §1

2-leaf corn = experiment: Disrupting metabolism of herbicide resistant plants in pots; assay type: in vivo; details: POST to 2-leaf corn, Topramezone / Mentha piperata, rate in label
Description: as §2

Timothy [6] = experiment: POST synergy treatments in pots; assay type: in vivo; details: POST emergence to 10 cm plants
Protocol: (§3) Potted plants. These assays are conducted in pots using a commercial potting media to establish broadleaf and grass plants with at least one true leaf. The cotyledons are not treated in these assays.

Rye [7] = experiment: POST synergy treatments in pots; assay type: in vivo, ryegrass; details: POST emergence to 10 cm plants
Protocol: as §3

[8] = Atrazine / Mentha piperata, rate in label
[9] = Glyphosate / Mentha piperata, 7 days
[10] = Glyphosate / Mentha piperata, 14 days

CCC(CC)Nc1c([N+](=O)[O-])cc(C)c(C)c1[N+](=O)[O-] [Pendi 1x, Pendimethalin]
% control Timothy (Timothy [1]): 50%
% control Timothy (Timothy [1]; listed as Pendi 2x): 75%
% control Timothy (Timothy [1]; listed as Pendi 4x): 83%
% control Rye (Rye [2]): 37%
% control Rye (Rye [2]; listed as Pendi 2x): 57%
% control Rye (Rye [2]; listed as Pendi 4x): 92%

Cc1c(C(=O)c2cnn(C)c2O)ccc(S(C)(=O)=O)c1C1=NOCC1 [Topro 1x alone, Topramezone]
PRE Germination % control Rye (Rye [3]): 50%
PRE Germination % control Timothy (Timothy [4]): 60%
% Green loss Timothy 14 Day (Timothy [5]): 5%
% bleaching of seedlings (seedlings): 50%
% Control 14 Day (2-leaf corn): 0%

CCNc1nc(Cl)nc(NC(C)C)n1 [Atrazine 1x alone, Atrazine]
% control Timothy (Timothy [6]; [8]): 60%
% control Rye (Rye [7]; [8]): 55%

O=C(O)CNCP(=O)(O)O [Glyphosate 1x alone, Glyphosate]
% control Timothy 7 days (Timothy [6]; [9]): 0%
% control Timothy 14 Days (Timothy [6]; [10]): 90%
% control Rye 7 days (Rye [7]; [9]): 0%
% control Rye 14 Days (Rye [7]; [10]): 85%
